In ChEMBL document CHEMBL4316594, “An overview of grayanane diterpenoids and their biological activities from the Ericaceae family in the last seven years” (Eur J Med Chem, 2019):

Experiments:
[1] = biological target: T1, Tyrosine-protein phosphatase non-receptor type 1 (Homo sapiens, UniProt P18031); test: Inhibition of recombinant PTP1B catalytic domain (unknown origin) using pNPP as substrate
T1 sequence (P18031 whole entry): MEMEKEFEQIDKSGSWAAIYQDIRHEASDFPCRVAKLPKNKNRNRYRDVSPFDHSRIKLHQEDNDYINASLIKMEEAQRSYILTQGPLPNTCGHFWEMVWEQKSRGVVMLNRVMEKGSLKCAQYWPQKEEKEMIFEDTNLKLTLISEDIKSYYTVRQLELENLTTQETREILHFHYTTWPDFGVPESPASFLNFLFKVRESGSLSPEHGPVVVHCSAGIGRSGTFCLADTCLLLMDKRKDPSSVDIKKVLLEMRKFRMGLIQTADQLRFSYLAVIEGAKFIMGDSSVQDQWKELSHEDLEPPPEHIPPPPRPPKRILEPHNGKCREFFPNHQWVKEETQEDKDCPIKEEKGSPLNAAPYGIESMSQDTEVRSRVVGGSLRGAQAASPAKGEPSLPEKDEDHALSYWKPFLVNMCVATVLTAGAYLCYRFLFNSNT

[2] = tested on: Pieris brassicae; test: Antifeedant activity in Pieris brassicae measured 24 hrs post leaf feeding by leaf disc method; assay type: functional, organism-based
[3] = biological target: T1, Tyrosine-protein phosphatase non-receptor type 1; test: Inhibition of recombinant human PTP1B expressed in Escherichia coli using pNPP as substrate preincubated for 10 mins followed by substrate addition for 30 mins and measured at 5 mins interval for 30 mins
[4] = biological target: T1, Tyrosine-protein phosphatase non-receptor type 1; test: Inhibition of recombinant human PTP1B expressed in Escherichia coli using pNPP as substrate preincubated for 30 mins followed by substrate addition for 45 mins and measured at 5 mins interval for 30 mins
[5] = tested on: Mus musculus; test: Antinociceptive activity in Kunming mouse model assessed as inhibition of acetic acid-induced writhes at 10 mg/kg, ip pretreated for 15 mins followed by acetic acid challenge and measured for 20 mins post acetic acid challenge relative to control; assay type: functional
[6] = tested on: Mus musculus; test: Antinociceptive activity in Kunming mouse model assessed as inhibition of acetic acid-induced writhes at 5 mg/kg, ip pretreated for 15 mins followed by acetic acid challenge and measured for 20 mins post acetic acid challenge relative to control; assay type: functional
[7] = tested on: Mus musculus; test: Antinociceptive activity in ip dosed Kunming mouse model assessed as inhibition of acetic acid-induced writhes pretreated for 15 mins followed by acetic acid challenge and measured for 20 mins post acetic acid challenge; assay type: functional; details: read-out: ID50 (the source's name)
[8] = tested on: Influenza A virus; test: Antiviral activity against Influenza A virus (A/Hanfang/359/95(H3N2)) infected in MDCK cells assessed as reduction in virus-induced cytopathogenicity; assay type: functional, organism-based
[9] = tested on: Mus musculus; test: Antinociceptive activity in Kunming mouse model assessed as inhibition of acetic acid-induced writhes at 0.08 mg/kg, ip pretreated for 30 mins followed by acetic acid challenge and measured for 30 mins post acetic acid challenge relative to control; assay type: functional
[10] = tested on: Coxsackievirus B3; test: Antiviral activity against Coxsackievirus B3 infected in African green monkey Vero cells; assay type: functional, organism-based; details: Enterovirus B

SMILES: C=C1[C@H]2C[C@H](O)C(C)(C)[C@@]2(O)[C@H](O)C[C@]23C=C(C)[C@H](CC[C@@H]12)[C@H]3O
- IC50 [1]: 3.14 µM

SMILES: CC1(C)CCC[C@H](O)[C@@]2(C)[C@@H]3CC[C@@H]4C[C@@]3(C[C@H]2C1=O)C[C@@]4(C)O
- inhibition (INH) [2]: 45%

SMILES: CO[C@@H]1O[C@H]2O[C@@H]3C[C@]45C[C@@](C)(O)[C@H](CC[C@H]4[C@@](C)(O3)[C@H]2CC1(C)C)[C@H]5O
- IC50 [3]: 42.4 µM

SMILES: CC1=C[C@@H]2O[C@@]3(C)[C@@H]4C[C@H](O)[C@H]1[C@]24C[C@@H](O)[C@@]1(O)[C@H]3[C@@H]2O[C@@H]2C1(C)C
- IC50 [3]: 24.3 µM

SMILES: Cc1cccc(C[C@H]2O[C@]3(C)O[C@@]24[C@@H]([C@@H](O)[C@H](O)C4(C)C)[C@@H]3C)c1
- IC50 [4]: 23 µM

SMILES: CO[C@@H]1C[C@]23C[C@@](C)(O)[C@H](CC[C@H]2[C@](C)(C2=CO[C@H](OC)C(C)(C)C2=O)O1)[C@H]3O
- IC50 [3]: 19.9 µM

SMILES: C[C@]12CC[C@H](O)[C@@]3(C)[C@@H]4CC[C@@H]5C[C@]4(C[C@@]5(C)O)C[C@@]3(OC1=O)C2=O
- inhibition in vivo at 10 mg/kg [5]: 45%
- inhibition (INH) [2]: 45%

SMILES: C=C1[C@H]2C[C@H](O)C(C)(C)[C@@]2(O)[C@H](O)C[C@]23C[C@@](C)(O)[C@H](CC[C@@H]12)[C@H]3O
- IC50 [1]: 24.5 µM

SMILES: CO[C@H]1C[C@]23C[C@@](C)(O)[C@H](CC[C@H]2[C@](C)(C2=CO[C@H](OC)C(C)(C)C2=O)O1)[C@H]3O
- IC50 [3]: 16.7 µM

SMILES: CCC(=O)O[C@@H]1[C@@H](OC(C)=O)[C@@]2([C@](C)(O)CCl)OC(=O)C[C@H]2[C@](C)(O)[C@@H]2CC[C@@H]3[C@@H](OC(C)=O)[C@]12[C@@H](OC(C)=O)[C@@]3(C)OC(C)=O
- EC50 [2]: 10.07 microg/cm2

SMILES: CC(C)(O)[C@]12OC(=O)C[C@H]1[C@](C)(O)[C@@H]1[C@H](O)C[C@@H]3[C@@H](O)[C@@]1([C@H](O)[C@H]2O)[C@@H](O)[C@@]3(C)O
- inhibition in vivo at 5 mg/kg [6]: 69.9%
- ED50 [7]: 0.72 mg/kg

SMILES: CCC(=O)O[C@@H]1[C@H]2CC[C@H]3[C@@](C)(O)[C@@H]4CC(=O)O[C@]4([C@](C)(O)CCl)[C@H](OC(C)=O)[C@@H](OC(C)=O)[C@@]13[C@@H](OC(C)=O)[C@@]2(C)OC(C)=O
- EC50 [2]: 5.33 microg/cm2

SMILES: Cc1cccc(C[C@H]2O[C@]3(C)O[C@@]24[C@@H]([C@@H](O)[C@H](O)C4(C)C)[C@H]3C)c1
- IC50 [4]: 32.2 µM

SMILES: CC1(C)[C@H]2O[C@H]2[C@H]2[C@@]3(C)O[C@H](C[C@@]45C=C[C@@H](C[C@H]43)[C@](C)(O)C5)[C@]21C
- IC50 [8]: 19.2 µM

SMILES: CC(O)C(=O)O[C@@H]1[C@H]2CC[C@H]3[C@@](C)(O)[C@@H]4[C@@H]5O[C@@H]5C(C)(C)[C@@]4(O)[C@H](O)C(=O)[C@@]13C[C@@]2(C)O (stereo partly drawn)
- inhibition in vivo at 0.08 mg/kg [9]: 37.6%

SMILES: CC(=O)[C@@H]1C[C@@H](O)[C@H]2[C@@H](O)[C@@]1(C[C@H]1OC(=O)C(C)(C)[C@]1(O)CCO)C[C@@]2(C)O
- IC50 [10]: 27.7 µM

SMILES: CO[C@H]1[C@H](O)C(C)(C)[C@@]2(O)[C@H](O)[C@@H](O)[C@]34C[C@@](C)(O)[C@H](CC[C@H]3[C@@](C)(O)[C@H]12)[C@H]4O
- inhibition in vivo at 0.08 mg/kg [9]: 56.8%

SMILES: CC1=C[C@]23C[C@H]1CC[C@H]2[C@]1(C)[C@@H](O)CCCC(C)(C)C(=O)[C@@H]1C3
- inhibition (INH) [2]: 45%

SMILES: CC1(C)[C@@H](O)[C@H](Cl)[C@H]2[C@](C)(O)[C@@H]3CC[C@@H]4[C@@H](O)[C@]3(C[C@@]4(C)O)[C@H](O)[C@@H](O)[C@@]21O
- inhibition in vivo at 0.08 mg/kg [9]: 49.8%

SMILES: CC(C)(O)[C@]12OC(=O)C[C@H]1[C@](C)(O)[C@@H]1CC[C@@H]3[C@@H](O)[C@@]1([C@H](O)[C@H]2O)[C@@H](O)[C@@]3(C)O
- inhibition in vivo at 5 mg/kg [6]: 63.5%
- ED50 [7]: 1.24 mg/kg
